{
  "source": "patent EP3597653A1",
  "about": "“CYCLIC INHIBITORS OF HEPATITIS B VIRUS” (IRBM S.P.A., priority 2018, dated 2020)",
  "data": [
    {"system": "HBV", "test": "HBV inhibition assay in HepAD38 cells (extracellular HBV DNA by direct qPCR)", "assay_type": "cell-based", "details": "Hepatitis B virus, 8-point dose-response curve, 96 hours, read-out: HBV inh EC50", "source_text": "(§1) HepAD38 cell line (Ladner et al., Antimicrob Agents Chemother, 1997, 41, 1715-20) was used for HBV inhibition assays. HepAD38 is a subclone, derived from Hepatoblastoma cell line HepG2 (ATCC® Number: HB-8065™), that expresses HBV genome under the control of a tetracycline-responsive promoter in a TET-OFF system: addition of tetracycline suppresses HBV replication, while its removal switches on the process allowing HBV viral particles release in the cell supernatant. HepAD38 cell line is maintained in DMEM/F12, supplemented with 10% of fetal bovine serum, 1% of glutamine, 1% of penicillin/streptomycin, 0.4 mg/ml G418 and 0,3 ug/ml tetracycline. For the HBV inhibition assay, doxycycline-free medium is used in order to allow virion production.\n(§2) HBV inhibition activity in vitro was performed in 96 multiwell plates. During the initial (primary) screening compounds were first tested in triplicates at concentrations of 0.1µM, 0.5µM amd 1µM. For selected compounds, an 8-point dose-response curve can be obtained using 1:2 serial dilutions (starting from 2.5 µM, 1.25µM or 0.4 µM, depending on the degree of inhibition observed during the primary screening). From the dose-response curves, half maximal effective concentration (EC50) can be calculated (see also below).\n(§3) In more detail, compounds - typically dissolved in DMSO stock solutions - are diluted to 2x the final desired concentration in 100 µl of the above medium (without doxycycline) and plated in three replicates in the 96-well plates.\n(§4) Simultaneously, HepAD38 cells - extensively pre-washed in tetracycline-free medium in order to induce HBV production - are suspended at 2*10^4 cells in 100 µl of tetracycline-free medium and added to each well of the plate, to yield a final assay volume of 200 µl DMSO - used for stock solutions and compounds dilutions - which is always present in the assays at a final concentration of 0.5%.\n(§5) Plates are then incubated 96 hours at 37°C and then subjected to cell viability assay in order to define compounds cytotoxicity and to extracellular HBV quantification in order to evaluate antiviral activity of compounds. Cytotoxicity is assessed by a commercial fluorescence assay that measures the metabolic activity of cells, directly related to cell viability (Cell Titer Blue, Promega). Anti-HBV activity was evaluated by quantification of extracellular HBV DNA with direct qPCR. In particular, supernatant was collected and centrifuged for cell debris clarification, viral DNA was extracted from virions by addition of lysis buffer (1 mM 1,4-dithiothreitol, 0.2% sodium dodecyl sulphate) and incubated at 95°C for 10 min. Samples were then diluted 1:40 and real time PCR amplification was performed with SYBR green assay (Power SYBR™ Green PCR Master Mix-Thermo Fisher Scientific) and specific HBV primer (HBV-DF:5'-[…]-3' (SEQ ID No. 1), HBV-DR:5'-[…]-3' (SEQ ID No. 2)).\n(§6) All HBV inhibition or antiviral activity data are typically reported in percent (%) relative to a non-treated reference sample. Excel and Graphpad Prism programs are typically used for data elaboration and EC50 calculation.", "units": {"EC50": "nM"}, "values": [
      {"smiles": "Cc1cc(C(=O)Nc2cc(F)c(F)c(F)c2)cc2c1NCNS2(=O)=O", "note": "[Example E88, 5-methyl-N-(3,4,5-trifluorophenyl)-3,4-dihydro-2H-benzo[e][1,2,4]thiadiazine-7-carboxamide 1,1-dioxide]", "EC50": "> 1000"},
      {"smiles": "O=C(Nc1cc(F)c(F)c(F)c1)c1ccc2c(c1)S(=O)(=O)N[C@@]1(N2)C(=O)Nc2ccccc21", "note": "(single isomer, unassigned) [Example E130]", "EC50": "< 1000"}
    ]},
    {"system": "HBV", "test": "HBV inhibition assay in HepAD38 cells (extracellular HBV DNA by direct qPCR)", "assay_type": "cell-based", "details": "Hepatitis B virus, compound at 0.1 µM, 96 hours, relative to non-treated reference, read-out: Anti HBV Activity (conc µM)", "source_text": "as §1, §2, §3, §4, §5, §6", "units": {"inhibition at 0.1 µM": "%"}, "values": [
      {"smiles": "CN1CC[C@H](N2C(=O)Nc3ccc(C(=O)Nc4cc(F)c(F)c(F)c4)cc3S2(=O)=O)C1", "note": "[Example E85, (S)-2-(1-methylpyrrolidin-3-yl)-3-oxo-N-(3,4,5-trifluorophenyl)-3,4-dihydro-2H-benzo[e][1,2,4]thiadiazine-7-carboxamide 1,1-dioxide]", "inhibition at 0.1 µM": "< 50"}
    ]},
    {"system": "HBV", "test": "HBV inhibition assay in HepAD38 cells (extracellular HBV DNA by direct qPCR)", "assay_type": "cell-based", "details": "Hepatitis B virus, compound at 0.5 µM, 96 hours, relative to non-treated reference, read-out: Anti HBV Activity (conc µM)", "source_text": "as §1, §2, §3, §4, §5, §6", "units": {"inhibition at 0.5 µM": "%"}, "values": [
      {"smiles": "CC1(c2cnccn2)Nc2ccc(C(=O)Nc3cc(F)c(F)c(F)c3)cc2S(=O)(=O)N1", "note": "(stereo not shown) [Example E55, 3-methyl-3-(pyrazin-2-yl)-N-(3,4,5-trifluorophenyl)-3,4-dihydro-2H-benzo[e][1,2,4]thiadiazine-7-carboxamide 1,1-dioxide]", "inhibition at 0.5 µM": "> 50"},
      {"smiles": "O=C(Nc1cc(F)c(F)c(F)c1)c1ccc2c(c1)S(=O)(=O)NC1(N2)C(=O)Nc2ccccc21", "note": "(racemic) [Example E56, 2'-oxo-N-(3,4,5-trifluorophenyl)-2H,4H-spiro[benzo[e][1,2,4]thiadiazine-3,3'-indoline]-7-carboxamide 1,1-dioxide]", "inhibition at 0.5 µM": "> 50"},
      {"smiles": "O=C(Nc1cc(F)c(F)c(F)c1)c1ccc2c(c1)S(=O)(=O)N([C@H]1C[C@@H](O)C1)C(=O)N2", "note": "[Example E124, Cis-2-(3-hydroxycyclobutyl)-3-oxo-N-(3,4,5-trifluorophenyl)-3,4-dihydro-2H-benzo[e][1,2,4]thiadiazine-7-carboxamide 1,1-dioxide]", "inhibition at 0.5 µM": "> 50"},
      {"smiles": "O=C(Nc1cc(F)c(F)c(F)c1)c1ccc2c(c1)S(=O)(=O)NC(c1ncccn1)N2", "note": "(stereo not shown) [Example E54, 3-(pyrimidin-2-yl)-N-(3,4,5-trifluorophenyl)-3,4-dihydro-2H-benzo[e][1,2,4]thiadiazine-7-carboxamide 1,1-dioxide]", "inhibition at 0.5 µM": "> 50"},
      {"smiles": "O=C(Nc1ccc(F)c(C(F)F)c1)c1ccc2c(c1)S(=O)(=O)N([C@H]1CC[C@H](O)CC1)C(=O)N2", "note": "[Example E131, N-(3-(difluoromethyl)-4-fluorophenyl)-2-((1r,4r)-4-hydroxycyclohexyl)-3-oxo-3,4-dihydro-2H-benzo[e][1,2,4]thiadiazine-7-carboxamide 1,1-dioxide]", "inhibition at 0.5 µM": "> 50"}
    ]},
    {"system": "HBV", "test": "HBV inhibition assay in HepAD38 cells (extracellular HBV DNA by direct qPCR)", "assay_type": "cell-based", "details": "Hepatitis B virus, compound at 1 µM, 96 hours, relative to non-treated reference, read-out: Anti HBV Activity (conc µM)", "source_text": "as §1, §2, §3, §4, §5, §6", "units": {"inhibition at 1 µM": "%"}, "values": [
      {"smiles": "O=C(Nc1cc(F)c(F)c(F)c1)c1ccc2c(c1)S(=O)(=O)Nc1ncnn1-2", "note": "[Example E138, N-(3,4,5-trifluorophenyl)-4H-benzo[e][1,2,4]triazolo[5,1-c][1,2,4]thiadiazine-7-carboxamide 5,5-dioxide]", "inhibition at 1 µM": "< 50"},
      {"smiles": "O=C(Nc1ccc(F)c(F)c1)c1ccc2c(c1)S(=O)(=O)NC(CO)N2", "note": "(stereo not shown) [Example E119, N-(3,4-difluorophenyl)-3-(hydroxymethyl)-3,4-dihydro-2H-benzo[e][1,2,4]thiadiazine-7-carboxamide 1,1-dioxide]", "inhibition at 1 µM": "> 50"},
      {"smiles": "O=C(Nc1cc(F)c(F)c(F)c1)c1ccc2c(c1)S(=O)(=O)N1CCNCC1CO2", "note": "(stereo not shown) [Example E115, N-(3,4,5-trifluorophenyl)-1,2,3,4,12,12a-hexahydrobenzo[b]pyrazino[1,2-e][1,4,5]oxathiazepine-8-carboxamide 6,6-dioxide]", "inhibition at 1 µM": "< 50"},
      {"smiles": "CC1=Nc2ccc(C(=O)Nc3ccc(F)c(F)c3)cc2S(=O)(=O)N1", "note": "[Example E67, N-(3,4-difluorophenyl)-3-methyl-2H-benzo[e][1,2,4]thiadiazine-7-carboxamide 1,1-dioxide]", "inhibition at 1 µM": "< 50"},
      {"smiles": "O=C(Nc1ccc(F)c(F)c1)c1ccc2c(c1)S(=O)(=O)NC=N2", "note": "[Example E66, N-(3,4-difluorophenyl)-2H-benzo[e][1,2,4]thiadiazine-7-carboxamide 1,1-dioxide]", "inhibition at 1 µM": "< 50"}
    ]}
  ]
}
